Results: patent US8293790B2, “Pharmaceutical compositions comprising DGLA and benzoyl peroxide and methods of use thereof” (Dignity Sciences Limited, priority 2011, dated 2012)
Values after ≈ are worked out from the molar mass of the structure shown. Like-named read-outs stand apart in the source and are kept apart here. Marks after values point to notes of the source that are not given here.

How the values were obtained:
P. acnes [1] = assay: Agar dilution method: growth of P. acnes and MIC, fatty acid compounds in combination with other compounds; type: cell-based, Propionibacterium acnes
Procedure: Several compounds including fatty acids such as DGLA, 15-OHEPA, and 15-HETrE were tested to determine their capacity to inhibit the growth of P. acnes. In an exemplary method, an agar dilution method was used to determine the minimum inhibitory concentration (MIC) of each tested compound. Briefly, the agar dilution method involved preparing a series of concentrations of each compound (e.g., nicotinamide, benzoyl peroxide, adapalene, metronidazole, DGLA, 15-OHEPA, and 15-HETrE) in a Reinforced Clostridial Agar (RCA) media that facilitates growth of P. acnes under anaerobic conditions. An inoculum of P. acnes was prepared by incubation of P. acnes for approximately seven days at 35-37° C. to achieve a ≧1.0 OD600 inoculum of P. acnes in RCM broth. A portion of this inoculum was then added to the surface of each plate as a 10 μL spot and incubated at 35-37° C. for 72 hours or more. Growth of P. acnes was then observed and compared to control plates in which no compound has been added, and positive inhibition plates prepared with erythromycin. […] The growth of P. acnes in the presence of nicotinamide, benzoyl peroxide, adapalene, metronidazole, DGLA, 15-OHEPA, and 15-HETrE was determined with varying concentrations of the compound (see, Table 2). Next, the MIC was determined as the concentration at which a marked reduction (+) occurs in the appearance of growth on the test plate (as per Clinical and Laboratory Standards Institute M11-A7). The compounds tested singly in Example 1 were tested in combination with one another to determine the capacity of the combination to inhibit the growth of P. acnes. In an exemplary method, the MIC was determined for each of the combination as described in Example 1. Briefly, test combinations included DGLA with nicotinamide, benzoyl peroxide, adapalene, or metronidazole; 15-HETrE with nicotinamide, benzoyl peroxide, adapalene, or metronidazole; and 15-OHEPA with nicotinamide, benzoyl peroxide, adapalene, or metronidazole. The tables below show the growth of P. acnes in the presence of 0.4 or 1.0 mg/mL DGLA with varying concentrations of nicotinamide, benzoyl peroxide, adapalene, or metronidazole (Table 3); the growth of P. acnes in the presence of 0.01 or 0.05 mg/mL 15-HETrE with varying concentrations of nicotinamide, benzoyl peroxide, adapalene, or metronidazole (Table 5); and the growth of P. acnes in the presence of 0.5 or 0.1 mg/mL 15-OHEPA with varying concentrations of nicotinamide, benzoyl peroxide, adapalene, or metronidazole (Table 7).

P. acnes [2] = assay: Agar dilution method: growth of P. acnes and MIC, compounds tested singly; type: cell-based, Propionibacterium acnes; set-up: key to Growth Index (+++, ++, +, −) Plate 1 / Growth Index (+++, ++, +, −) Plate 2 / Growth Index (+++, ++, +, −) Plate 3 / Growth Index (+++, ++, +, −) Avg: +++: confluent growth (comparable to control); ++: less confluent growth; +: marked reduction in growth to multiple tiny, single colonies; −: no growth present; MIC: unit: mg/mL; conditions: for MIC: compound alone
Procedure: Several compounds including fatty acids such as DGLA, 15-OHEPA, and 15-HETrE were tested to determine their capacity to inhibit the growth of P. acnes. In an exemplary method, an agar dilution method was used to determine the minimum inhibitory concentration (MIC) of each tested compound. Briefly, the agar dilution method involved preparing a series of concentrations of each compound (e.g., nicotinamide, benzoyl peroxide, adapalene, metronidazole, DGLA, 15-OHEPA, and 15-HETrE) in a Reinforced Clostridial Agar (RCA) media that facilitates growth of P. acnes under anaerobic conditions. An inoculum of P. acnes was prepared by incubation of P. acnes for approximately seven days at 35-37° C. to achieve a ≧1.0 OD600 inoculum of P. acnes in RCM broth. A portion of this inoculum was then added to the surface of each plate as a 10 μL spot and incubated at 35-37° C. for 72 hours or more. Growth of P. acnes was then observed and compared to control plates in which no compound has been added, and positive inhibition plates prepared with erythromycin. […] The growth of P. acnes in the presence of nicotinamide, benzoyl peroxide, adapalene, metronidazole, DGLA, 15-OHEPA, and 15-HETrE was determined with varying concentrations of the compound (see, Table 2). Next, the MIC was determined as the concentration at which a marked reduction (+) occurs in the appearance of growth on the test plate (as per Clinical and Laboratory Standards Institute M11-A7).

[3] = Cutibacterium acnes, MIC = concentration with marked reduction (+) of growth, read-out: MIC (mg/mL) as per P-11-0007 or P-11-0008 Addendum A
[4] = compound at 0.00001 mg/mL in agar
[5] = compound at 0.0001 mg/mL in agar
[6] = compound at 0.001 mg/mL in agar

SMILES	MIC (P. acnes [2]; [3]) [mg/mL]	Growth Index (+++, ++, +, −) Avg (P. acnes [2]; compound at 0.2 mg/mL in agar)	Growth Index (+++, ++, +, −) Plate 1 (P. acnes [2]; compound at 0.2 mg/mL in agar)	Growth Index (+++, ++, +, −) Plate 2 (P. acnes [2]; compound at 0.2 mg/mL in agar)	Growth Index (+++, ++, +, −) Plate 3 (P. acnes [2]; compound at 0.2 mg/mL in agar)	Growth Index (+++, ++, +, −) Avg (P. acnes [2]; compound at 0.4 mg/mL in agar)	Growth Index (+++, ++, +, −) Plate 1 (P. acnes [2]; compound at 0.4 mg/mL in agar)	Growth Index (+++, ++, +, −) Plate 2 (P. acnes [2]; compound at 0.4 mg/mL in agar)	Growth Index (+++, ++, +, −) Plate 3 (P. acnes [2]; compound at 0.4 mg/mL in agar)	Growth Index (+++, ++, +, −) Avg (P. acnes [2]; compound at 0.6 mg/mL in agar)	Growth Index (+++, ++, +, −) Plate 1 (P. acnes [2]; compound at 0.6 mg/mL in agar)	Growth Index (+++, ++, +, −) Plate 2 (P. acnes [2]; compound at 0.6 mg/mL in agar)	Growth Index (+++, ++, +, −) Plate 3 (P. acnes [2]; compound at 0.6 mg/mL in agar)	Growth Index (+++, ++, +, −) Avg (P. acnes [2]; compound at 0.8 mg/mL in agar)	Growth Index (+++, ++, +, −) Plate 1 (P. acnes [2]; compound at 0.8 mg/mL in agar)	Growth Index (+++, ++, +, −) Plate 2 (P. acnes [2]; compound at 0.8 mg/mL in agar)	Growth Index (+++, ++, +, −) Plate 3 (P. acnes [2]; compound at 0.8 mg/mL in agar)	also measured
COc1ccc(-c2ccc3cc(C(=O)O)ccc3c2)cc1C12CC3CC(CC(C3)C1)C2 [Adapalene, 6-[3-(1-adamantyl)-4-methoxyphenyl]-2-naphthoic acid]	> 0.8	+++	+++	+++	+++	+++	+++	+++	+++	++	++	++	+++	++	++	++	++	MIC (mg/mL) with 0.05 mg/mL 15-HETrE spike (P. acnes [1]; 0.05 mg/mL 15-HETrE spike, itself an inhibitory concentration): <0.2 mg/mL; MIC (mg/mL) with 0.05 mg/mL 15-OHEPA spike (P. acnes [1]; 0.05 mg/mL 15-OHEPA spike): >0.8 mg/mL; MIC (mg/mL) with 0.1 mg/mL 15-OHEPA spike (P. acnes [1]; 0.1 mg/mL 15-OHEPA spike, itself an inhibitory concentration): <0.2 mg/mL; MIC (mg/mL) with 0.4 mg/mL dGLA spike (P. acnes [1]; 0.4 mg/mL dGLA spike, dGLA supplied by Sigma, cat# E4504): >0.6* mg/mL; MIC (mg/mL) with 1.0 mg/mL dGLA spike (P. acnes [1]; 1.0 mg/mL dGLA spike, dGLA supplied by Cayman, cat# 90230): >0.6* mg/mL; growth of P. acnes in combination with 15-OHEPA compared with 15-OHEPA alone (P. acnes [1]; in combination with 15-OHEPA): did not reduce the growth of P. Acnes below that of 15 OHEPA used alone; growth of P. acnes in combination with DGLA compared with DGLA alone (P. acnes [1]; in combination with DGLA): did not reduce the growth of P. Acnes below that of DGLA used alone; MIC (P. acnes [2]; no unit in the sentence): > 0.8
CCCCCC(O)/C=C/C=C\C/C=C\CCCCCCC(=O)O (stereo not shown) [15-HETrE, 15-Hydroxy-eicosa-8(Z),11(Z),13(E)-trienoic acid]																		effect on growth of P. acnes on its own (P. acnes [2]; 0.01 mg/ml): no effect on its own; Growth Index (+++, ++, +, −) Avg (P. acnes [2]; [4]): +++; Growth Index (+++, ++, +, −) Plate 1 (P. acnes [2]; [4]): +++; Growth Index (+++, ++, +, −) Plate 2 (P. acnes [2]; [4]): +++; Growth Index (+++, ++, +, −) Plate 3 (P. acnes [2]; [4]): +++; Growth Index (+++, ++, +, −) Avg (P. acnes [2]; [5]): +++; Growth Index (+++, ++, +, −) Plate 1 (P. acnes [2]; [5]): +++; Growth Index (+++, ++, +, −) Plate 2 (P. acnes [2]; [5]): +++; Growth Index (+++, ++, +, −) Plate 3 (P. acnes [2]; [5]): +++; Growth Index (+++, ++, +, −) Avg (P. acnes [2]; [6]): +++; Growth Index (+++, ++, +, −) Plate 1 (P. acnes [2]; [6]): +++; Growth Index (+++, ++, +, −) Plate 2 (P. acnes [2]; [6]): +++; Growth Index (+++, ++, +, −) Plate 3 (P. acnes [2]; [6]): +++; Growth Index (+++, ++, +, −) Avg (P. acnes [2]; compound at 0.01 mg/mL in agar): ++; Growth Index (+++, ++, +, −) Plate 1 (P. acnes [2]; compound at 0.01 mg/mL in agar): ++; Growth Index (+++, ++, +, −) Plate 2 (P. acnes [2]; compound at 0.01 mg/mL in agar): +++; Growth Index (+++, ++, +, −) Plate 3 (P. acnes [2]; compound at 0.01 mg/mL in agar): ++
CCCCC/C=C\C/C=C\C/C=C\CCCCCCC(=O)O [DGLA, cis-8,11,14-eicosatrienoic acid]	0.4 to 0.6 (≈ 1310 to 1960 µM)	+++	+++	+++	+++	+++	+++	+++	+++	+	++	−	++	+	++	+	+	effect on growth of P. acnes on its own (P. acnes [2]; 0.4 mg/ml): no effect on its own; Growth Index (+++, ++, +, −) Avg (P. acnes [2]; compound at 1.0 mg/mL in agar): +; Growth Index (+++, ++, +, −) Plate 1 (P. acnes [2]; compound at 1.0 mg/mL in agar): +; Growth Index (+++, ++, +, −) Plate 2 (P. acnes [2]; compound at 1.0 mg/mL in agar): +; Growth Index (+++, ++, +, −) Plate 3 (P. acnes [2]; compound at 1.0 mg/mL in agar): +
